From the supplement of paper PMC9912026

System: A375
Test: pERK immunofluorescence, normalised; higher = more ERK phosphorylation
Conditions: vemurafenib 0 µM, drug treatment time 24 h
Experimental: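 A375 or A375 CRISPRa-EGFR (A375_Cra_F7_5/13) cells were adapted for 24 h to a cobimetinib dose series, with or without 1 uM vemurafenib, then stimulated with EGF (100 ng/mL) or mock medium and fixed at the indicated times. pERK was measured by immunofluorescence as the population mean normalised to baseline, with the SD of technical replicates (n=2).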

O=C(c1ccc(F)c(F)c1Nc1ccc(I)cc1F)N1CC(O)([C@@H]2CCCCN2)C1 [cobimetinib]
pERK immunofluorescence
Conditions	cobimetinib 31.62 pM	cobimetinib 0.0001 µM	cobimetinib 0.000316228 µM	cobimetinib 0.001 µM	cobimetinib 0.003162278 µM	cobimetinib 0.01 µM	cobimetinib 0.031622777 µM	cobimetinib 0.1 µM	cobimetinib 0.316227766 µM	cobimetinib 1 µM
EGF 0 ng/mL, time after EGF/mock 0.083 h	0.965	0.9579	0.873	0.658	0.313	0.16	0.1379	0.13	0.1264	0.1263
EGF 0 ng/mL, time after EGF/mock 0.5 h	0.9998	0.958	0.8944	0.679	0.306	0.157	0.135	0.1283	0.1262	0.126
EGF 0 ng/mL, time after EGF/mock 2 h	0.961	0.958	0.904	0.746	0.358	0.152	0.1311	0.1245	0.1235	0.1235
EGF 0 ng/mL, time after EGF/mock 8 h	0.97332	0.972	0.93	0.7507	0.312	0.132	0.1135	0.113	0.105	0.1046
EGF 0 ng/mL, time after EGF/mock 24 h	0.962	0.985	0.952	0.817	0.399	0.1129	0.10189	0.103	0.1021	0.0982
EGF 100 ng/mL, time after EGF/mock 0.083 h	1.19	1.2	1.133	1.18	1.39	1.4	1.37	1.04	0.268	0.134
EGF 100 ng/mL, time after EGF/mock 0.5 h	1.03	1.03	0.9538	0.887	0.782	0.594	0.411	0.333	0.336	0.144
EGF 100 ng/mL, time after EGF/mock 2 h	0.959	0.965	0.891	0.782	0.4241	0.176	0.136	0.1271	0.1234	0.12285
EGF 100 ng/mL, time after EGF/mock 8 h	0.946	0.9729	0.909	0.786	0.487	0.168	0.124	0.114	0.1065	0.1039
EGF 100 ng/mL, time after EGF/mock 24 h	0.8607	0.897	0.854	0.773	0.518	0.128	0.1071	0.1048	0.104	0.0978
